Our source for the critical swimming time and anti-fatigue action values is patent publication US8703789B2, “Compositions incorporating sesamin-class compounds and vitamin B1 class compounds” (Suntory Holdings Limited, priority 2007, dated 2014).

The test relates to Balb/c male mice kept immersed in water (stress from sleep deprivation). In words: Water immersion sleep deprivation test, weight-loaded swimming; critical swimming time = time to nose first submerged for at least 10 seconds (Examples 1 and 3). The note with it: for anti-fatigue action: fatigue animal models.

Molecules are shown by their SMILES. Where a name gives a salt, the structure may show the parent alone.

Description: The anti-fatigue action in the present invention, or its effectiveness as “anti-fatigue agents” can be verified by such a method as measuring the swimming time in a water immersion sleep deprivation test. Mice that have been kept in an environment such as water immersion where they are unable to have a good sleep or take a rest position so they cannot have a physical or mental rest are forced to swim under a weight load and the critical swimming time (e.g., the time it takes for the mouse to have its nose first submerged in the water for a period of ten seconds or longer or the time it takes for the mouse to have its nose finally submerged in the water (and incapable of rising up to its surface again)) is measured to confirm the degree of their fatigue. Since this is an animal model for physical or mental fatigue, an extension of the swimming time as achieved by administering it with the test substance means the verification of resistance to fatigue, as exemplified by prevention or relief of physical and/or mental fatigue or any accompanying muscle or other pains, a sufficient increase in body strength to extend the time to total exhaustion, and maintenance of physical vigor in the tired model.
The anti-fatigue effect was evaluated by the following partial modification of the method of Tanaka et al. (Neuroscience, Let. 352, 159-162, 2003): Balb/c male mice (8-week old) were purchased from Japan SLC, Inc. and conditioned in a test environment for a week, and the animals that had grown normally were subjected to the test. They were divided into five groups, as identified in Table 1, such that each group consisted of 10 animals and had the same average body weight. […] Four of those five groups were water immersion groups under stress from sleep deprivation, which were kept in breeding cages, not on paper chips but in tap water (23° C.) supplied to a depth of 7 mm, thereby depriving the mice of sleep. During a two-day immersion in water to deprive sleep, the mice were administered orally with the associated test samples for two days on a one-dose-a-day basis. Of the two test samples, the sesamin-class compounds were dissolved in olive oil and the thiamin in distilled water. The order of administration was the thiamin followed by the sesamin-class compounds; as controls, distilled water and olive oil were administered orally.
After two days of keeping under immersion in water or normal keeping, each mouse was fitted with a weight at the tail which corresponded to 8% of its body weight, and was allowed to swim in a water tank of 18 cm^φ that was filled with water to a depth of 30 cm; the time it took for each mouse to have its nose first submerged in the water for a period of at least 10 seconds was measured as the critical swimming time. […] The degree by which the administration of the test samples (sesamin-class compounds and/or vitamin B1 class compound) could shorten the critical swimming time was measured to evaluate the anti-fatigue action of the test samples.
The anti-fatigue action from independent administration of vitamin B1 class compound was evaluated as in Example 1, except that the mice were divided into nine groups as identified in Tables 3 and 4.

`Cc1ncc(C[n+]2csc(CCO)c2C)c(N)n1` [vitamin B1 class compound, thiamine hydrochloride]: the critical swimming time entry runs as follows: (Example 1, FIG. 1, 50 mg/kg vitamin B1 class compound oral, once a day for two days (comparative group 2) vs comparative group 1) “no recognizable change in critical swimming time”; (Example 3, FIG. 3, 5 mg/kg vitamin B1 class compound alone (reference group 1) vs comparative group 7) “comparable”; (Example 3, FIG. 3, 10 mg/kg vitamin B1 class compound alone (reference group 2) vs comparative group 7) “comparable”; (Example 3, FIG. 3, 25 mg/kg vitamin B1 class compound alone (reference group 3) vs comparative group 7) “comparable”; (Example 3, FIG. 4, 50 mg/kg vitamin B1 class compound alone (reference group 4) vs comparative group 8) “comparable”; (Example 3, FIG. 4, 100 mg/kg vitamin B1 class compound alone (reference group 5) vs comparative group 8) “longer”. Besides, the anti-fatigue action entry (only vitamin B1 class compound orally, 5 to 10 mg/kg (FIG. 3)) was “no anti-fatigue action was observed”; the anti-fatigue action entry (vitamin B1 class compound independently, 5 mg/kg (FIGS. 3 and 4)) is reported as “no anti-fatigue action was observed”; the anti-fatigue action entry (vitamin B1 class compound independently, 10 mg/kg (FIGS. 3 and 4)) is on record as “no anti-fatigue action was observed”; the anti-fatigue action result (vitamin B1 class compound independently, 25 mg/kg (FIGS. 3 and 4)) was “no anti-fatigue action was observed”; the anti-fatigue action entry (vitamin B1 class compound independently, 50 mg/kg (FIGS. 3 and 4)) is listed as “no anti-fatigue action was observed”; the anti-fatigue action entry (vitamin B1 class compound independently, 100 mg/kg (FIGS. 3 and 4)) is “enhanced”.
